Reference: patent publication US11299506B2, “Acylnucleoside phosphonates, prodrugs thereof and use thereof as medicament” (UNIVERSITE DE MONTPELLIER, priority 2017, dated 2022)
Where two headings read alike, the source gives them in different places.

Legend:
[1] = test system: Plasmodium falciparum (strain 3D7); experiment: In vitro anti-Plasmodium falciparum activity (infected erythrocytes, radioactive precursor incorporation); type: cell-based
Protocol: After 48 h of incubation in the absence (control) or in the presence of the compound to be tested, the radioactive precursor is added, and the reaction is continued for another 18 h, then stopped by freezing at −80° C. The macromolecules, including the radiolabeled nucleic acids, are collected on a filter. The incorporated radioactivity is measured with the scintillation counter after addition of scintillation cocktail. The radioactive background noise is measured based on a suspension of healthy erythrocytes (same conditions as for parasite-containing suspensions). The viability of the parasites is expressed as a (nonspecific derived) percentage of the control. […] The IC50 values thus determined are the result of at least two experiments carried out independently in duplicate. Batches A and B correspond to two different syntheses according to the same procedure and carried out in their totality by two different operators, at a six month interval.

Babesia divergens = experiment: In vitro anti-Babesia divergens activity (infected erythrocytes, [3H]-hypoxanthine incorporation); type: cell-based; conditions: 16 h contact, read-out: Activity against Babesia divergens IC50
Protocol: After 16 h of incubation in the absence (control) or in the presence of the compound, the radioactive precursor is added and the reaction is continued for another 8 h and then stopped by freezing at −80° C. As for the determination of the in vitro anti-parasitic activity, the macromolecules, including the radiolabeled nucleic acids, are collected on a filter. The incorporated radioactivity is measured with the scintillation counter after addition of scintillation cocktail. The radioactive background noise is measured based on a suspension of healthy erythrocytes (same conditions as for the parasite-containing suspensions). The viability of the parasites is expressed as a (nonspecific derived) percentage of the control. […] The IC50 values thus determined are the result of at least two experiments performed independently in duplicate.

K562 cells = experiment: Toxicity with respect to K562 cells ([3H]-thymidine incorporation); type: cell-based, human; conditions: 3H-thymidine detection; Batch B; 24 h incubation; read-out: Activity against the K562 cells, 3H-Thymidine, Batch B IC50
Protocol: Suspensions of human cells (8000 cells per well) are cultured in complete RPMI medium (RPMI 1640 medium, L-glutamine, penicillin/streptomycin and 10% fetal calf serum) (200 μL) either in the absence of the compound to be tested (controls), or in contact with variable concentrations of said compound.
After 24 h of incubation (or approximately one cell cycle), 0.7 μCi of [^3H]-thymidine (radiolabeled precursor of the synthesis of the nucleic acids) diluted in 30 μL of complete RPMI medium are added to each well. After 6 h of additional incubation, the thymidine incorporation reaction is stopped by freezing at −80° C. As for the determination of the in vitro anti-malarial activity, the macromolecules, including the radiolabeled nucleic acids, are collected on a filter. The incorporated radioactivity is measured with the scintillation counter after addition of scintillation cocktail.
The radioactive background noise is measured based on complete RPMI medium. The viability of the cells is expressed as a (nonspecific derived) percentage of the control. The measurements are analyzed using Excel and Prism software, and the IC50 (concentration capable of in vitro inhibition of 50% of the growth of the cells) is determined graphically.
The IC50 values thus determined are the result of at least two experiments performed independently in duplicate.

Toxoplasma gondii = experiment: In vitro anti-toxoplasmosis activity by plaque assay on HFF fibroblast monolayer; type: cell-based; conditions: 7 days, average of 2 values
Protocol: This test is based on the capability of Toxoplasma gondii in its intracellular form (tachyzoite) to bring about the lysis of its host cell (here a monolayer of fibroblasts) and to then infect the neighboring cells so that over time (days) a macroscopically visible hole in the monolayer of cells becomes apparent and its area can be measured. In the 24-well culturing plates, approximately 80 parasites are added to a monolayer of fibroblasts (HFF cells) for 7 days in the presence or absence of drug. The cells are then fixed with 4% paraformaldehyde, and then stained with Giemsa. The cells are visualized under the microscope, and the size of the lysis plaques is measured using the software Zen® (Zeiss). The cells are maintained in culture in complete medium (DMEM+5% fetal calf serum+glutamine+penicillin/streptomycin). The ability of the drug to inhibit the growth of Toxoplasma gondii is proportional to the decrease in the size of the lysis plaque.
The results obtained are collected in Table 4 (average of 2 values) below and in FIG. 1.

[2] = Plasmodium falciparum, 3D7, Erythrocyte, 3H-hypoxanthine detection, Batch A, 48 h contact, read-out: Activity against P. falciparum (3D7), detection 3H-Hypoxanthine, Batch A IC50
[3] = read-out: Activity against P. falciparum (3D7), detection 3H-Ethanolamine, Batch A IC50
[4] = read-out: Activity against P. falciparum (3D7), detection 3H-Hypoxanthine, Batch A IC50
[5] = read-out: Activity against P. falciparum (3D7), detection 3H-Hypoxanthine, Batch B IC50
[6] = Plasmodium falciparum, 3D7, Erythrocyte, 3H-ethanolamine detection, Batch A, 48 h contact, read-out: Activity against P. falciparum (3D7), detection 3H-Ethanolamine, Batch A IC50

## O=P(O)(O)C[C@H](O)CCn1cnc2cc(Cl)c(Cl)cc21 [Compound 18]
[1]; [2]
  IC50: > 100 µM
Babesia divergens; Babesia divergens, Erythrocyte
  IC50: 470 µM

## Nc1ncc2ncn(CC[C@@H](O)CP(=O)(O)O)c2n1 [Compound 16]
[1]; [2]
  IC50: 62 µM
Babesia divergens; Babesia divergens, Erythrocyte
  IC50: > 100 µM

## N-9-[(2S)-2-hydroxy-3-phosphonopropyl] adenine [Compound 9]
[1]; [3]
  IC50: > 1000 µM
[1]; [4]
  IC50: > 1000 µM

## O=c1[nH]c(=O)c2ncn(CC[C@H](O)CP(=O)(O)O)c2[nH]1 [Compound 22]
[1]; [2]
  IC50: 910 µM
Babesia divergens; Babesia divergens, Erythrocyte
  IC50: > 1000 µM

## N-9-[(2R)-2-hydroxy-3-phosphonobutyl]guanine [Compound 5]
[1]; [3]
  IC50: 0.043 µM
[1]; [4]
  IC50: 0.058 µM
[1]; [5]
  IC50: 0.0775 µM
K562 cells
  IC50: 10000 µM
Babesia divergens
  IC50: 0.48 µM
Toxoplasma gondii; Conc = 5 μM
  Inhibition of the growth of T. gondii: 42 % of the controls
Toxoplasma gondii; Conc = 50 μM
  Inhibition of the growth of T. gondii: 100 % of the controls

## N-9-[(2S)-2-hydroxy-3-phosphono propyl]guanine [Compound 12]
Babesia divergens
  IC50: > 1000 µM

## N-9-[(2R)-2-hydroxy-3-phosphonopropyl]2,6-diamino purine [Compound 13]
[1]; [3]
  IC50: 740 µM
[1]; [4]
  IC50: 510 µM

## N-9-[(2S)-2-hydroxy-3-phosphono propyl]guanine [Compound 3]
[1]; [3]
  IC50: 6 µM
[1]; [4]
  IC50: 3.3 µM
[1]; [5]
  IC50: 7.05 µM
K562 cells
  IC50: > 5000 µM
Babesia divergens
  IC50: 3.6 µM
Toxoplasma gondii; Conc = 5 μM
  Inhibition of the growth of T. gondii: 0 % of the controls
Toxoplasma gondii; Conc = 50 μM
  Inhibition of the growth of T. gondii: 18 % of the controls

## COc1nc(N)nc2c1ncn2C[C@@H](O)CCP(=O)(OCCSC(=O)c1ccccc1)OCCSC(=O)c1ccccc1 [Compound 4, 6-O-methyl-9-[(2S)-2-hydroxy-4-bis(S-benzoyl-2-thioethyl)phosphonobutyl]-2-amino Purine]
[1]; [5]
  IC50: 57 µM
K562 cells
  IC50: 22 µM

## N-9-[(2S)-2-hydroxy-3-phosphonopropyl]2,6-diamino purine [Compound 14]
[1]; [3]
  IC50: 650 µM
[1]; [4]
  IC50: 595 µM

## O=c1[nH]c(=O)c2ncn(CC[C@@H](O)CP(=O)(O)O)c2[nH]1 [Compound 19]
[1]; [2]
  IC50: > 100 µM
Babesia divergens; Babesia divergens, Erythrocyte
  IC50: > 100 µM

## N=C(N)c1ccc(OCCCCCOc2ccc(C(=N)N)cc2)cc1 [Pentamidine, reference compound]
Babesia divergens; Babesia divergens, Erythrocyte
  IC50: 0.183 µM

## O=c1[nH]cnc2c1ncn2CC[C@H](O)CP(=O)(O)O [Compound 21]
[1]; [2]
  IC50: > 1000 µM
Babesia divergens; Babesia divergens, Erythrocyte
  IC50: > 100 µM

## N-9[(2R)-2-hydroxy-4-phosphonobutyl]adenine [Compound 2]
[1]; [3]
  IC50: > 1000 µM
[1]; [4]
  IC50: > 1000 µM

## Nc1ncnc2c1ncn2C[C@@H](O)CP(=O)(O)O [Compound 10, N-9-[(2R)-2-hydroxy-3-phosphonopropyl] adenine]
[1]; [6]
  IC50: > 1000 µM
[1]; [2]
  IC50: > 1000 µM

## CCN(CC)CCCC(C)Nc1ccnc2cc(Cl)ccc12 (stereo not shown) [Chloroquine, reference compound]
[1]; Plasmodium falciparum, 3D7, Erythrocyte, read-out: Activity against P. falciparum (3D7), detection 3H-Ethanolamine, Batch A IC50
  IC50: 0.014 µM
[1]; Plasmodium falciparum, 3D7, Erythrocyte, read-out: Activity against P. falciparum (3D7), detection 3H-Hypoxanthine, Batch A IC50
  IC50: 0.0145 µM

## COc1nc(N)nc2c1ncn2C[C@H](O)CCP(=O)(OCCSC(=O)c1ccccc1)OCCSC(=O)c1ccccc1 [Compound 6, 6-O-methyl-9-[(2R)-2-hydroxy-4-bis(S-benzoyl-2-thioethyl)phosphonobutyl]-2-aminopurine]
[1]; [5]
  IC50: 62 µM
K562 cells
  IC50: 20 µM

## O=c1[nH]cnc2c1ncn2CC[C@@H](O)CP(=O)(O)O [Compound 20]
[1]; [2]
  IC50: > 1000 µM
Babesia divergens; Babesia divergens, Erythrocyte
  IC50: > 100 µM

## Nc1nc2c(ncn2C[C@@H](O)CP(=O)(O)O)c(=O)[nH]1 [Compound 11, N-9-[(2R)-2-hydroxy-3-phosphonopropyl]guanine]
[1]; [6]
  IC50: > 1000 µM
[1]; [2]
  IC50: ≥ 1000 µM
